Each structure is given as a SMILES string.

We go through 2 molecules from patent US7763610B2, “Carboxylic acid derived benzoxazines as agents for the treatment of respiratory diseases” (Ono Pharmaceutical Co., Ltd., priority 2003, dated 2010).

This experiment addresses T1, cysLT2 receptor (Homo sapiens, UniProt Q9NS75).
T1 construct: expressed in transfected cells; host or cells: HEK293
T1 sequence (Q9NS75 1-346): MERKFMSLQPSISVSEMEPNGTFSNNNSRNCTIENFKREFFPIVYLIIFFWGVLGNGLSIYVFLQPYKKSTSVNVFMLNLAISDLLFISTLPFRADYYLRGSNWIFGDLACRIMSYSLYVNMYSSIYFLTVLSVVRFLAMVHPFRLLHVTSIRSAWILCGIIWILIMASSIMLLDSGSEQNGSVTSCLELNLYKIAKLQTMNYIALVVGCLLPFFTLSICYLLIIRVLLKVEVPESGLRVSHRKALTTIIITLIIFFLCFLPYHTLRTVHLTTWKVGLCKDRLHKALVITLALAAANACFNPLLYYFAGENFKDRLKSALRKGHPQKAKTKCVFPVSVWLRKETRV
As to the kind of experiment: Effect on LTD4-induced increase of intracellular calcium. In kind it is cell-based. To be noted: HEK293 expression cells of cysLT2 receptor, 100 nM LTD4, compound 180 seconds before stimulation; read-out: IC50 value (50% inhibitory concentration, LTD4-induced intracellular calcium influx). On the procedure:
Expression cells of cysLT2 receptor (HEK293) were seeded in a 96-well plate each containing 1×10^5 cells. The cells were cultured for 24 hours in a 5% CO2 at 37° C. using DMEM (Dulbecco's Modified Eagle Medium). The cells were incubated in 7.5 μM Fura2-AM, 20 mM HEPES (2-[4-(2-hydroxyethyl)-1-piperazinyl]ethanesulfonic acid) and 2.5 mM probenecid for approximately 30 minutes at 37° C. The cells with uptake of Fura2-AM were once washed with assay buffer (Hank's buffer containing 20 mM HEPES) and intracellular calcium influx induced by LTD4 was measured by FDSS2000 (Hamamatsu Photonics K.K.). The compound of the present invention was administered 180 seconds before LTD4 stimulation, and the reaction induced by 100 nM LTD4 was measured in time course for 90 seconds. The effect of the compound of the present invention was evaluated by maximum fluorescence intensity, and 50% inhibitory concentration (IC50) was calculated on each compound.
For orientation: A change in cytosolic calcium serves as a functional read-out for many receptors and channels.

For the molecule `O=C(O)CCCN1CC(C(=O)O)Oc2c(OCc3ccc(OCCCCc4ccccc4)cc3)cccc21` (centres unmarked) [Example 25], the IC50 worked out at 30 nM. Then `O=C(O)CCC(=O)N1CC(c2nnn[nH]2)Oc2c(NC(=O)c3ccc(OCCCCc4ccccc4)cc3)cccc21` (centres unmarked) [Example 12], with 101 nM.
